Patent publication US20260284028A1, “FUSED BICYCLIC HETEROCYCLYL COMPOUNDS AS CCR4 MODULATORS” (AURIGENE ONCOLOGY LIMITED, priority 2023, published 2026)
Read-outs that look alike come from different tables or passages of the source.

Target: T1, CCR4 (Homo sapiens, UniProt P51679)
T1 construct: expressed in transfected cells; host or cells: CHO-K1
T1 sequence (P51679 1-360): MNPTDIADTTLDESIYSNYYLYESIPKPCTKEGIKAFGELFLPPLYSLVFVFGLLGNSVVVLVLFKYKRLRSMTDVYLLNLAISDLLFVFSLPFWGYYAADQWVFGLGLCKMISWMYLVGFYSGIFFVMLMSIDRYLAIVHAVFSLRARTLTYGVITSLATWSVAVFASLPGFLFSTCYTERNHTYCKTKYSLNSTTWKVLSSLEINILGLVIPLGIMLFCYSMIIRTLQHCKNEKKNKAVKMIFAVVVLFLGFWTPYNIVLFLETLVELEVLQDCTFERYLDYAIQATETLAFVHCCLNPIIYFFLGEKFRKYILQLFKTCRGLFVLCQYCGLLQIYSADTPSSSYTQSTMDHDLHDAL
Assay: β-Arrestin recruitment assay (CHO-K1 CCR4 β-Arrestin cells stimulated with recombinant human CCL22)
Format: cell-based
Conditions: CCL22 10 nM stimulation; for IC50: read-out: CCR4 antagonistic activity IC50 (μM) in range; for inhibition: read-out: % inhibition at 5 μM/30 μM (% E-Max)
Method: CHO-K1 CCR4 β-Arrestin cells were seeded and incubated overnight at 37° C. in a CO2 incubator for adherence. Next day, cells were pretreated with various concentrations of CCR4 modulators for 30 mins at 37° C. The cells were stimulated with recombinant human CCL22 (10 nM) and further incubated for 90 mins. Working detection solution was added and incubated at room temperature for 1 hour after which the chemiluminescent signal was read using a luminometer.
Exemplary compounds of the present application were screened by the above-mentioned assay and the results were tabulated.

[1] = CHO-K1, read-out: % inhibition 30 μM (% E-Max)

Row | SMILES | IC50 | inhibition [1] | % inhibition at 5 μM/30 μM (% E-Max) | inhibition (CHO-K1, at 30 μM)
1 | C[C@@H](Nc1c(F)ncc2nc(N3CC([C@H]4CCCN([C@H]5C[C@](C)(C(=O)O)C5)C4)C3)sc12)c1ccc(Cl)cc1Cl [Compound 30] | < 0.25 µM | 103% |  | 
2 | C[C@@H](Nc1ncnc2nc(N3CC([C@H]4CCCN([C@H]5C[C@](C)(C(=O)O)C5)C4)C3)sc12)c1ccc(Cl)cc1Cl [Compound 32, (1R,3r)-3-((R)-3-(1-(7-(((R)-1-(2,4-Dichlorophenyl)ethyl)amino)thiazolo[4,5-d]pyrimidin-2-yl)azetidin-3-yl)piperidin-1-yl)-1-methylcyclobutane-1-carboxylic acid] | < 0.25 µM | 104% |  | 
3 | Cc1nc(N[C@H](C)c2ccc(Cl)cc2Cl)c2sc(N3CC([C@H]4CCCN([C@H]5C[C@](C)(C(=O)O)C5)C4)C3)nc2n1 [Compound 33] | < 0.25 µM | 103% |  | 
4 | C[C@@H](Nc1nc(C(F)(F)F)nc2nc(N3CC([C@H]4CCCN([C@H]5C[C@](C)(C(=O)O)C5)C4)C3)sc12)c1ccc(Cl)cc1Cl [Compound 34] | 0.25 to 0.5 µM | 102% |  | 
5 | C[C@@H](Nc1c(F)ccc2nc(N3CC([C@H]4CCCN([C@H]5C[C@](C)(C(=O)O)C5)C4)C3)sc12)c1ncc(Cl)cc1Cl [Compound 36, (1R,3r)-3-((R)-3-(1-(7-(((R)-1-(3,5-dichloropyridin-2-yl)ethyl)amino)-6-fluorobenzo[d]thiazol-2-yl)azetidin-3-yl)piperidin-1-yl)-1-methylcyclobutane-1-carboxylic acid] | < 0.25 µM |  | 103% at 5 μM | 
6 | C[C@@H](Nc1c(F)ccc2nc(N3CC([C@H]4CCCN([C@H]5C[C@](C)(C(=O)O)C5)C4)C3)sc12)c1ncc(Cl)cc1Cl [Compound 37, (1R,3r)-3-((R)-3-(1-(7-(((S)-1-(3,5-dichloropyridin-2-yl)ethyl)amino)-6-fluorobenzo[d]thiazol-2-yl)azetidin-3-yl)piperidin-1-yl)-1-methylcyclobutane-1-carboxylic acid] | > 0.5 µM |  | 78% at 5 μM | 
7 | CC(Nc1c(F)ccc2nc(N3CC([C@H]4CCCN([C@H]5C[C@](C)(C(=O)O)C5)C4)C3)sc12)c1ncc(F)cc1F (stereo partly shown) [Compound 38] | 0.25 to 0.5 µM | 81% |  | 
8 | C[C@@H](Nc1c(F)ccc2nc(N3CC([C@H]4CCCN([C@H]5C[C@](C)(C(=O)O)C5)C4)C3)sc12)c1ncc(F)cc1F [Compound 39] |  | 39% |  | 
9 | C[C@H](Nc1c(F)ccc2nc(N3CC([C@H]4CCCN([C@H]5C[C@](C)(C(=O)O)C5)C4)C3)sc12)c1ncc(F)cc1F [Compound 40] | 0.25 to 0.5 µM | 84% |  | 
10 | CC(Nc1c(F)cnc2nc(N3CC([C@H]4CCCN([C@H]5C[C@](C)(C(=O)O)C5)C4)C3)sc12)c1ncc(Cl)cc1Cl (stereo partly shown) [Compound 41] | 0.25 to 0.5 µM | 101% |  | 
11 | CC(Nc1c(F)cnc2nc(N3CC([C@H]4CCCN([C@H]5C[C@](C)(C(=O)O)C5)C4)C3)sc12)c1ncc(F)cc1F (stereo partly shown) [Compound 44] | 0.25 to 0.5 µM | 99% |  | 
12 | CC(Nc1c(OC(F)F)ccc2nc(N3CC([C@H]4CCCN([C@H]5C[C@](C)(C(=O)O)C5)C4)C3)sc12)c1ncc(Cl)cc1Cl (stereo partly shown) [Compound 47] | > 0.5 µM | 93% |  | 
13 | C[C@@H](Nc1c(OC(F)F)ccc2nc(N3CC([C@H]4CCCN([C@H]5C[C@](C)(C(=O)O)C5)C4)C3)sc12)c1ncc(Cl)cc1Cl [Compound 48] |  | 52% |  | 
14 | C[C@H](Nc1c(OC(F)F)ccc2nc(N3CC([C@H]4CCCN([C@H]5C[C@](C)(C(=O)O)C5)C4)C3)sc12)c1ncc(F)cc1F [Compound 52] | > 0.5 µM |  |  | 99%
15 | C[C@@H](Nc1ncnc2nc(N3CC([C@H]4CCCN([C@H]5C[C@](C)(C(=O)O)C5)C4)C3)sc12)c1ncc(Cl)cc1Cl [Compound 53] | 0.25 to 0.5 µM | 94% |  | 
